This note sets out measurements from patent US9475842B2, “Hexadepsipeptide analogues as anticancer compounds” (PIRAMAL ENTERPRISES LIMITED, priority 2012, dated 2016).

The structures appear in SMILES notation. Read-outs that look alike come from different tables or passages of the source.

Data set [1] deals with HCT 116 (Colorectal Cancer). The data set is described as follows: Monolayer assay (CCK-8 cytotoxicity). To be noted: HCT116, Table 6, read-out: IC50 (μM) in different cancer cell lines: HCT116. The class given is cell-based, human. The protocol: (§1) The assays were designed as in the reference, BMC Cancer, 2010, 10, 610, 1-11; the disclosure of which is incorporated by reference for the teaching of the assay.
(§2) Human tumour cell lines: Panc-1 (Pancreatic Cancer), HCT 116 (Colorectal Cancer), ACHN (Renal Cell Carcinoma), Calu-1 (Lung Carcinoma), MiaPaca2 (Pancreatic Cancer), FADU (Head and Neck Cancer), PC3 (prostate Cancer), G361 (Melanoma), MDA-MB435S (Melanoma), HeLa (Cervical Cancer) were grown in Minimal Essential Media with Eagle's Basal Salts (MEM-EBS) obtained from AMIMED (BioConcept-Switzerland). Tumour cell lines: MDA-MB231 (Breast Cancer), JURKAT (T cell leukaemia), H460 (Small Cell Lung Cancer) were cultured in RPMI 1640 (AMIMED, BioConcept, Switzerland) medium. All tumour cell lines were supplemented with 10% Foetal Bovine Serum (FBS) (GIBCO), 1% Penicillin/Streptomycin (Sigma) and 1% Anti-Anti (GIBCO) and grown in T-175 tissue culture flasks (Nunc). MCF-10A, a non-tumourigenic cell line, was cultured in Mammary Epithelial Basal Medium (MEBM) with all standard additions (Lonza, Catalog. No. CC-3150). All cells were grown in 5% CO2 incubator at 37° C. Cells were passaged at 80-90% confluence. Adherent cells were trypsinised using Trypsin-EDTA (Sigma) and maintained. All cell lines were purchased from ATCC (Rockville, Md., USA).
(§3) Compound of Formula (1a) [described in example 7] was dissolved in DMSO to give a required stock solution of 20 mM. Eight different concentrations of the compound of Formula (1a) were prepared by serial dilution of stock solution finally resulting in a (compared to the test concentration) 200-fold higher concentration. Compound of Formula (1a) was tested at the concentration of 0.0001 μM, 0.001 μM, 0.01 μM, 0.03 μM, 0.1 μM, 0.3 μM, 1 μM and 3 μM respectively. Each concentration was evaluated in triplicate.
(§4) Method for determination of IC50 of the compound of Formula (1a): • a) Different cancer/normal cells were seeded at a density of 3000 cells/200 μL well, in a tissue culture grade 96 well plate and allowed them to recover for 24 hrs in a humidified 5±0.2% CO2 incubator at 37±0.5° C. • b) After 24 hrs, 1 μL of 200× (200 times higher than required concentration is denoted as 200×) compound of Formula (1a), dissolved in DMSO, was added to the above tissue culture plate seeded with cancer/normal cells. The final concentration of DMSO was 0.5% in wells. DMSO was used as a vehicle control. • c) After 24 hrs the plate was removed from CO2 incubator and 5 μL of CCK-8 (Dojindo Molecular Technologies, Inc. USA, catalog, no. CK04-20) per well was added. • d) The plate was then placed at 37° C. for 2 hrs. • e) The absorbance was recorded at 450 nm. • f) The percent cytotoxicity was calculated using the following formula
(§5) The IC50 value was estimated by visual inspection of the concentration-effect curve. For calculation of mean IC50 values over the fourteen cell lines as tested, the geometric mean was selected.
(§6) The assays were designed as described above in example 16.
(§7) The IC50 value was estimated by visual inspection of the concentration-effect curve. For calculation of mean IC50 values over the six cell lines (PC3, MDA MB, HCT116, MCF7, MIAPaCa2, MCF10A) as tested, the geometric mean was selected.

Data set [2] relates to MDA-MB231 (Breast Cancer). The data set is described as follows: Monolayer assay (CCK-8 cytotoxicity). The class given is cell-based, human. To be noted: MDA MB-231, Table 6, read-out: IC50 (μM) in different cancer cell lines: MDA MB-231. On the procedure:
as §1, §2, §3, §4, §5, §6, §7

A further data set relates to PC3 (prostate Cancer). Briefly: Monolayer assay (CCK-8 cytotoxicity). Format: cell-based, human. To be noted: PC3, Table 6, read-out: IC50 (μM) in different cancer cell lines: PC3. On the procedure:
as §1, §2, §3, §4, §5, §6, §7

The subject of data set [3] is MCF-10A, a non-tumourigenic cell line. The data set is described as follows: Monolayer assay (CCK-8 cytotoxicity), normal cells. The class given is cell-based. To be noted: Table 6. The protocol:
as §1, §2, §3, §4, §5, §6, §7

The next data set relates to MCF7. Briefly: Monolayer assay (CCK-8 cytotoxicity). Format: cell-based. To be noted: Table 6, read-out: IC50 (μM) in different cancer cell lines: MCF7. The protocol: as §1, §4, §6, §7
A further data set has as its system different cancer cells. Briefly: Monolayer assay, range over the cancer cell lines tested. The class given is cell-based. To be noted: Homo sapiens; range over the cancer cell lines of Table 6. The protocol: as §1, §2, §3, §4, §5, §6, §7
Data set [4] is described as follows: Solubility (physical properties). Format: physicochemical.
Setting [5] is: MCF10A normal cells, read-out: IC50 (μM) in different cancer cell lines: MCF10A.
Where [6] appears, read: read-out: IC50 (μM) in different cancer cell lines: MCF10A, MCF10A normal cells.
The mark [7] stands for this setting: Homo sapiens, MCF-10A, read-out: IC50 (μM) in different cancer cell lines: MCF10A, MCF10A normal cells.

Turning to `CON1C(=O)C2CCCNN2C(=O)C(NC(=O)C(C)(O)C2(O)CCC(CC(C)C)C(C)O2)C(C(C)C)OC(=O)C(C)N(O)C(=O)C2CCCNN2C(=O)CNC(=O)C1C` (stereo not shown) [Compound 1, 2-hydroxy-N-(18-hydroxy-22-isopropyl-6-methoxy-7,19-dimethyl-5,8,11,17,20,24-hexaoxotetracosahydrodipyridazino[6,1-f:6′,1′-o][1,4,7,10,13,16]oxapentaazacyclononadecin-23-yl)-2-(2-hydroxy-5-isobutyl-6-methyltetrahydro-2H-pyran-2-yl) propanamide], the IC50 was 0.287 µM in data set [1]; 0.293 µM in data set [2]; 0.502 µM in the data set with PC3 (prostate Cancer); 0.247 µM in data set [3] (setting [5]); 0.355 µM in the data set on MCF7.
Regarding `CON1C(=O)C2CCCNN2C(=O)C(NC(=O)C(C)(O)C2(O)CCC(CC(C)C)C(C)O2)C(C(C)C)OC(=O)C(C)N(OC)C(=O)C2CCCNN2C(=O)CNC(=O)C1C` (stereo not shown) [Compound 2, 2-hydroxy-2-(2-hydroxy-5-isobutyl-6-methyltetrahydro-2H-pyran-2-yl)-N-(22-isopropyl-6,18-dimethoxy-7,19-dimethyl-5,8,11,17,20,24-hexaoxotetracosahydrodipyridazino[6,1-f:6′,1′-o][1,4,7,10,13,16]oxapentaazacyclononadecin-23-yl)propanamide], the IC50 in data set [1] (Homo sapiens, HCT-116) is 0.635 µM; in data set [2] (Homo sapiens) it was 0.8 µM; with PC3 (prostate Cancer) (Homo sapiens), 1.04 µM; in data set [3] (setting [6]), 0.691 µM; in the data set on MCF7 (Homo sapiens), 0.826 µM; in the data set with different cancer cells it was 9 to 1040 nM.
For `CC(C)CC1CCC(O)(C(C)(O)C(=O)NC2C(=O)N3NCCCC3C(=O)N(OC(=O)CCNC(=O)OCc3ccccc3)C(C)C(=O)NCC(=O)N3NCCCC3C(=O)N(O)C(C)C(=O)OC2C(C)C)OC1C` (stereo not shown) [Compound 3, 18-hydroxy-23-(2-hydroxy-2-(2-hydroxy-5-isobutyl-6-methyltetrahydro-2H-pyran-2-yl)propanamido)-22-isopropyl-7,19-dimethyl-5,8,11,17,20,24-hexa oxoicosahydrodipyridazino[6,1-f:6′,1′-o][1,4,7,10,13,16]oxapentaazacyclononadecin-6(7H,13H,22H)-yl 3-(((benzyloxy)carbonyl)amino)propanoate], the IC50 in data set [1] (Homo sapiens, HCT-116) is 0.009 µM; in data set [2] (Homo sapiens), 0.03 µM; in the data set on PC3 (prostate Cancer) (Homo sapiens), 0.044 µM; in data set [3] (setting [6]), 0.031 µM; with MCF7 (Homo sapiens), 0.025 µM; with different cancer cells, 9 to 1040 nM.
Consider `CC(C)CC1CCC(O)(C(C)(O)C(=O)NC2C(=O)N3NCCCC3C(=O)N(OC(=O)CCN)C(C)C(=O)NCC(=O)N3NCCCC3C(=O)N(O)C(C)C(=O)OC2C(C)C)OC1C` (stereo not shown) [Compound 4, 18-hydroxy-23-(2-hydroxy-2-(2-hydroxy-5-isobutyl-6-methyltetra hydro-2H-pyran-2-yl)propanamido)-22-isopropyl-7,19-dimethyl-5,8,11,17,20,24-hexaoxo icosahydrodipyridazino[6,1-f:6′,1′-o][1,4,7,10,13,16]oxapentaazacyclononadecin-6(7H,13H,22H)-yl 3-aminopropanoate], for which the IC50 is 0.17 µM in data set [1], 0.2 µM in data set [2], under 0.3 µM in data set [3] (setting [5]) and 0.03 µM in the data set with MCF7.
Consider `CC(C)CC1CCC(O)(C(C)(O)C(=O)NC2C(=O)N3N=CCCC3C(=O)N(O)C(C)C(=O)NCC(=O)N3N=CCCC3C(=O)N(O)C(C)C(=O)OC2C(C)C)OC1C` (stereo not shown) [Compound 5, N-(6,18-dihydroxy-22-isopropyl-7,19-dimethyl-5,8,11,17,20,24-hexaoxo-3,4,4a,5,6,7,8,9,10,11,15,16,16a,17,18,19,20,22,23,24-icosahydrodipyridazino[6,1-f:6′,1′-o][1,4,7,10,13,16]oxapentaazacyclononadecin-23-yl)-2-hydroxy-2-(2-hydroxy-5-isobutyl-6-methyltetrahydro-2H-pyran-2-yl)propanamide], for which the IC50 in data set [1] (Homo sapiens, HCT-116) was under 0.01 µM; in data set [2] (Homo sapiens), 0.012 µM; in data set [3] (setting [7]), 0.01 to 0.83 µM; in data set [3] (setting [6]) it was under 0.01 µM; with MCF7 (Homo sapiens) it was 0.018 µM; in the data set on different cancer cells, 9 to 1040 nM.
Take `CC(C)CC1CCC(O)(C(C)(O)C(=O)NC2C(=O)N3NCCCC3C(=O)NC(C)C(=O)NCC(=O)N3NCCCC3C(=O)NC(C)C(=O)OC2C(C)C)OC1C` (stereo not shown) [Compound 6, 2-hydroxy-2-(2-hydroxy-5-isobutyl-6-methyltetrahydro-2H-pyran-2-yl)-N-(22-isopropyl-7,19-dimethyl-5,8,11,17,20,24-hexaoxotetracosahydrodipyridazino[6,1-f:6′,1′-o][1,4,7,10,13,16]oxapentaazacyclononadecin-23-yl)propanamide]: the IC50 in data set [1] (Homo sapiens, HCT-116) is 0.284 µM; in data set [2] (Homo sapiens), 0.343 µM; with PC3 (prostate Cancer) (Homo sapiens), 0.998 µM; in data set [3] (setting [6]) it was 0.819 µM; in the data set with MCF7 (Homo sapiens), 0.977 µM; in the data set on different cancer cells, 9 to 1040 nM.
As for `CC(=O)ON1C(=O)C2CCCNN2C(=O)C(NC(=O)C(C)(O)C2(O)CCC(CC(C)C)C(C)O2)C(C(C)C)OC(=O)C(C)N(O)C(=O)C2CCCNN2C(=O)CNC(=O)C1C` (stereo not shown) [Compound 7, 18-hydroxy-23-(2-hydroxy-2-(2-hydroxy-5-isobutyl-6-methyltetra hydro-2H-pyran-2-yl)propanamido)-22-isopropyl-7,19-dimethyl-5,8,11,17,20,24-hexaoxo icosahydrodipyridazino[6,1-f:6′,1′-o[]1,4,7,10,13,16]oxapentaazacyclononadecin-6(7H,13H,22H)-yl acetate], the IC50 in data set [1] stood at 0.257 µM; in data set [2], 0.32 µM; with PC3 (prostate Cancer), 0.36 µM; in data set [3] (setting [5]), 0.83 µM; in the data set with MCF7, 0.843 µM.
For the compound `CC(C)CC1CCC(O)(C(C)(O)C(=O)NC2C(=O)N3N=CCCC3C(=O)N(O)C(C)C(=O)NCC(=O)N3NCCCC3C(=O)N(O)C(C)C(=O)OC2C(C)C)OC1C` (stereo not shown) [Formula (1b), N-(6,18-dihydroxy-22-isopropyl-7,19-dimethyl-5,8,11,17,20,24-hexaoxo-3,4,4a,5,6,7,8,9, 10,11,13,14,15, 16,16a, 17,18,19,20,22,23,24-docosahydrodipyridazino[6,1-f:6′,1′-o][1,4,7,10, 13,16]oxapentaazacyclononadecin-23-yl)-2-hydroxy-2-(2-hydroxy-5-isobutyl-6-methyltetra hydro-2H-pyran-2-yl)propanamide], the IC50 is 0.032 µM in data set [1] (Homo sapiens, HCT-116); 0.018 µM in data set [2] (Homo sapiens); 0.035 µM with PC3 (prostate Cancer) (Homo sapiens); 0.03 µM in data set [3] (setting [7]); 0.071 µM in the data set with MCF7 (Homo sapiens); 18 to 71 nM with different cancer cells. Further, the “Solubility in organic solvents” value in data set [4] (chloroform, ethyl acetate and methanol) was “Soluble in chloroform, ethyl acetate and methanol and”. For the same compound, the Solubility in water entry in data set [4] (water) is on record as “insoluble in water”.
